Consider eleven compounds from US10543212B2, “Substituted amines for treating cardiac diseases” (Cardurion Pharmaceuticals, LLC, priority 2017, dated 2020).

Read-outs that look alike come from different tables or passages of the source.

In experiment [1] the test system is phosphorylation of CaMKII-specific site of phospholamban (Thr17, PLN) in the heart. The experiment in a line: In vivo cardiac CaMKII inhibition (P-PLN Thr17 in rat left ventricle, Western blotting). The following applies: po, male SD rat left ventricle, vs vehicle-treated group, read-out: Reduction rate of P-PLN; for inhibition in vivo at 30 mg/kg: 30 mg/kg p.o. The method, then:
To evaluate potency of test compounds to inhibit cardiac CaMKII kinase in vivo, phosphorylation levels of CaMKII-specific sites of phospholamban (Thr17, PLN) were measured in the heart of rats administered with test compounds at various doses.
Test compounds were suspended in 0.5% [w/v] methylcellulose/water solution and administered (10 or 30 mg/kg) to male CD (SD) IGS rat (6-8 weeks old, n=4) by the p.o. route (5 mL/kg). At 2-4 hours after the administration, rats were sacrificed and the hearts were harvested. After washing the isolated hearts with ice-cold saline, connective tissues were removed on ice, and the isolated left ventricle were frozen into liquid nitrogen gas and stored at −80° C.
The left ventricle samples were homogenized in RIPA-buffer containing phosphatase inhibitors and protease inhibitors. Samples were analyzed by Western blotting using anti-P-PLN (Thr17, Santa Cruz Biotechnology, sc-17024-R) antibody. The band intensities were quantified using an imaging system and were normalized relative to the vehicle-treated group.
In general terms: Immunoblotting shows a protein as a band on a membrane.

The target in experiment [2] is T1, Full-length, GST-tagged, human CaMKIIδ (Homo sapiens, UniProt Q13557).
T1 construct: Full-Length, Glutathione-S-Transferase(GST)-Tagged, Human CaMKIIδ was purchased from Carna Biosciences; purchased Carna Biosciences 02-111
The experiment in a line: CaMKIIδ binding assay (TR-FRET with BODIPY-labeled probe ligand). In a few lines: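 TR-FRET probe-displacement binding: 0.5 nM GST-CaMKIIδ with 10 μg/mL calmodulin, 1 mM CaCl2, 0.21 nM Tb-anti-GST Ab and 300 nM BODIPY probe in HEPES pH 7.6 buffer. Eight-point 4-fold dilutions, 1 hr at room temperature. IC50 from logistic fit; 100% inhibition defined by 3 μM parent compound.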

In experiment [3] the target is T2, Human full-length CaMKIIδ (Homo sapiens, UniProt Q13557).
T2 construct: Human full-length CaMKIIδ (Cat #02-111) was obtained from Carna Biosciences; GST; purchased Carna Biosciences 02-111
The experiment in a line: Human CaMKII enzyme inhibition assay (radiometric kinase assay). The class given is biochemical. The note with it: 3 μM compound; 500 nM ATP; 0.5 nM CaMKIIδ; read-out: CaMKIIδ inhibitory activity (%) at 3 μM. In outline: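 Radiometric [γ-33P]ATP assay: 0.5 nM CaMKIIδ and 0.1 μM autophosphorylation peptide in HEPES pH 7.5 with Ca2+/calmodulin, with 500 nM ATP. Enzyme was preincubated with compound for 5 min, then reacted 60 min at RT. Value is % inhibition at 3 μM compound, relative to no-enzyme and no-inhibitor controls.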

[4] abbreviates: Table 2, CaMKIIδ binding assay, activity given as class A/B/C.
Where [5] appears, read: Table 2, activity class for CaMKIIδ.
Setting [6] is: CaMKIIδ binding assay, activity class per Table 2.

T1 sequence (Q13557 1-478 isoform Q13557-12): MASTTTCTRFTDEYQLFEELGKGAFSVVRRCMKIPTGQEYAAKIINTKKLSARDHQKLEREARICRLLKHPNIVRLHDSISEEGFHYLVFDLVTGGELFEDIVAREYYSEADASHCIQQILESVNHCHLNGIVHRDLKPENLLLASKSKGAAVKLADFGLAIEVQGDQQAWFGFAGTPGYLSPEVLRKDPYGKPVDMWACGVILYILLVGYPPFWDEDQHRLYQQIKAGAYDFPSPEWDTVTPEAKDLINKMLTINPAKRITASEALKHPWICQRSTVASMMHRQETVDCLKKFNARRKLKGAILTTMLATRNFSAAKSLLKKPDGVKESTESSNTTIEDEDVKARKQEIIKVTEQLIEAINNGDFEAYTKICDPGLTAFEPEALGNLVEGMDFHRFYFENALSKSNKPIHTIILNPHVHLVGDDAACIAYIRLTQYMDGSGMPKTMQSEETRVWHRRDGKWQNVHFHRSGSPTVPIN

As to `C[C@@H](Cn1cnnn1)Oc1cc(-c2cnc(Nc3cn(C4CC5(C4)CN(C4CCOCC4)C5)nc3C(F)(F)F)nc2)ccc1Cl` [Example 831, (S)-5-(3-((1-(1H-tetrazol-1-yl)propan-2-yl)oxy)-4-chlorophenyl)-N-(1-(2-(tetrahydro-2H-pyran-4-yl)-2-azaspiro[3.3]heptan-6-yl)-3-(trifluoromethyl)-1H-pyrazol-4-yl)pyrimidin-2-amine], the inhibition in vivo at 30 mg/kg in experiment [1] (4 hr after administration) is above 50%. Further, the IC50 (usually the concentration at which inhibition is half-maximal) in experiment [2] (setting [4]) is below 10 nM. As for `C[C@@H](Cn1cnnn1)Oc1cc(-c2cnc(Nc3cn([C@H]4CC[C@H](N5CCOCC5)CC4)nc3OCC(F)(F)F)nc2)ccc1Cl` [Example 772, 5-(3-(((S)-1-(1H-tetrazol-1-yl)propan-2-yl)oxy)-4-chlorophenyl)-N-(1-(trans-4-morpholinocyclohexyl)-3-(2,2,2-trifluoroethoxy)-1H-pyrazol-4-yl)pyrimidin-2-amine], the inhibition in vivo at 30 mg/kg in experiment [1] (2 hr after administration) was above 50%. In addition, the IC50 in experiment [2] (setting [4]) is below 10 nM.

In the case of `C[C@@H](Cn1cnnn1)Oc1cc(-c2cnc(Nc3cn(C4CCN(C5CCOCC5)CC4)nc3C(F)(F)F)nc2)ccc1Cl` [Example 484, (S)-5-(3-((1-(1H-tetrazol-1-yl)propan-2-yl)oxy)-4-chlorophenyl)-N-(1-(1-(tetrahydro-2H-pyran-4-yl)piperidin-4-yl)-3-(trifluoromethyl)-1H-pyrazol-4-yl)pyrimidin-2-amine], the inhibition in vivo at 30 mg/kg in experiment [1] (2 hr after administration) was above 50%. The compound further returned an IC50 in experiment [2] (CaMKIIδ binding assay, results of Table 2) below 10 nM. Turning to `C[C@@H](Cn1cnnn1)Oc1cc(-c2cnc(Nc3cn([C@H]4CC[C@H](N5CCOCC5)CC4)nc3OCC(F)F)nc2)ccc1Cl` [Example 806, 5-(3-(((S)-1-(1H-tetrazol-1-yl)propan-2-yl)oxy)-4-chlorophenyl)-N-(3-(2,2-difluoroethoxy)-1-(trans-4-morpholinocyclohexyl)-1H-pyrazol-4-yl)pyrimidin-2-amine], in experiment [1] (2 hr after administration), the inhibition in vivo at 30 mg/kg was above 50%. This compound also returned an IC50 in experiment [2] (setting [4]) below 10 nM. For `CC(C)c1nn([C@H]2CC[C@H](N3CCOCC3)CC2)cc1Nc1ncc(-c2ccc(Cl)c(O[C@@H](C)Cn3cnnn3)c2)cn1` [Example 843, 5-(3-(((S)-1-(1H-tetrazol-1-yl)propan-2-yl)oxy)-4-chlorophenyl)-N-(3-isopropyl-1-(trans-4-morpholinocyclohexyl)-1H-pyrazol-4-yl)pyrimidin-2-amine], the inhibition in vivo at 10 mg/kg in experiment [1] (10 mg/kg p.o., 4 hr after administration) was above 50%. In experiment [2] (setting [4]), this compound registered an IC50 below 10 nM. Turning to `C[C@@H](Cn1cnnn1)Oc1cc(-c2cnc(Nc3cn(C4CC5(C4)CN(C4CCOCC4)C5)nc3OCC(F)(F)F)nc2)ccc1Cl` [Example 795, (S)-5-(3-((1-(1H-tetrazol-1-yl)propan-2-yl)oxy)-4-chlorophenyl)-N-(1-(2-(tetrahydro-2H-pyran-4-yl)-2-azaspiro[3.3]heptan-6-yl)-3-(2,2,2-trifluoroethoxy)-1H-pyrazol-4-yl)pyrimidin-2-amine], the inhibition in vivo at 30 mg/kg in experiment [1] (2 hr after administration) is above 50%. Further, the IC50 in experiment [2] (setting [4]) was below 10 nM. With `C[C@@H](Cn1cnnn1)Oc1cc(-c2cnc(Nc3cn([C@H]4CC[C@H](N5CCOCC5)CC4)nc3C(F)(F)F)nc2)ccc1Cl` [Example 695, 5-(3-(((S)-1-(1H-tetrazol-1-yl)propan-2-yl)oxy)-4-chlorophenyl)-N-(1-(trans-4-morpholinocyclohexyl)-3-(trifluoromethyl)-1H-pyrazol-4-yl)pyrimidin-2-amine], the inhibition in vivo at 30 mg/kg in experiment [1] (2 hr after administration) is above 50%. In experiment [2] (setting [5]), the IC50 is below 10 nM.

As for `C[C@@H](Cn1cnnn1)Oc1cc(-c2cnc(Nc3cn(C4CCN(C5CCOCC5)CC4)nc3OCC(F)(F)F)nc2)ccc1Cl` [Example 677, (S)-5-(3-((1-(1H-tetrazol-1-yl)propan-2-yl)oxy)-4-chlorophenyl)-N-(1-(1-(tetrahydro-2H-pyran-4-yl)piperidin-4-yl)-3-(2,2,2-trifluoroethoxy)-1H-pyrazol-4-yl)pyrimidin-2-amine], in experiment [1] (2 hr after administration), the inhibition in vivo at 30 mg/kg is above 50%. This compound also yielded an IC50 in experiment [2] (setting [5]) below 10 nM.

On to `C[C@@H](Cn1cnnn1)Oc1cc(-c2cnc(Nc3cn(C4CC5(C4)CN(CC(C)(C)O)C5)nc3OCC(F)(F)F)nc2)ccc1Cl` [Example 946, (S)-1-(6-(4-((5-(3-((1-(1H-tetrazol-1-yl)propan-2-yl)oxy)-4-chlorophenyl)pyrimidin-2-yl)amino)-3-(2,2,2-trifluoroethoxy)-1H-pyrazol-1-yl)-2-azaspiro[3.3]heptan-2-yl)-2-methylpropan-2-ol], for which the inhibition in vivo at 30 mg/kg in experiment [1] (4 hr after administration) is above 50%. Moreover, the IC50 in experiment [2] (setting [6]) is below 10 nM. The corresponding values for `CC(=O)OC(C)(C)CN1CC2(CC(n3cc(Nc4ncc(-c5ccc(Cl)c(O[C@@H](C)Cn6cnnn6)c5)cn4)c(OCC(F)(F)F)n3)C2)C1` [Example 951, 1-[6-(4-{[5-(4-chloro-3-{[(2S)-1-(1H-tetrazol-1-yl)propan-2-yl]oxy}phenyl)pyrimidin-2-yl]amino}-3-(2,2,2-trifluoroethoxy)-1H-pyrazol-1-yl)-2-azaspiro[3.3]heptan-2-yl]-2-methylpropan-2-yl acetate] are above 50% and below 10 nM. Regarding `C[C@@H](Cn1ncnn1)Oc1cc(-c2cnc(Nc3cnn(C)c3)nc2)ccc1C#N` [Example 411, 4-(2-((1-methyl-1H-pyrazol-4-yl)amino)pyrimidin-5-yl)-2-(((2S)-1-(2H-tetrazol-2-yl)propan-2-yl)oxy)benzonitrile], the inhibition at 3 µM in experiment [3] was determined as 93%.
